The source of these data is US5401490A, “Markers of tissue hypoxia” (priority 1989, dated 1995).

The test system of data set [1] is EMT-6 cells. Briefly: Toxicity to hypoxic EMT-6 cells (surviving fraction). As to conditions: for time required to reduce the cell population by 90%: 37° C.; for selective toxicity to hypoxic EMT-6 tumor cells: in words. The class given is cell-based, mouse. Here is the method:
This represents a cytosidal toxicity about 10× that of MISO under the same conditions.
EXAMPLE 9 TOXICITY STUDIES
EMT-6 mouse fibrosarcoma cells in stirred cultures, as described previously (5), were exposed to various concentrations of the test drugs under hypoxic conditions. Cells were removed at various intervals and the colony-forming ability was assessed by plating the cells in drug-free complete MEM with 10% fetal calf serum. The data were used to construct plots of surviving fraction of EMT-6 cells against time of incubation with test drug at various drug concentrations (FIG. 2) as in Jette (13).

In data set [2] the test system is EMT-6 cells. Briefly: Hypoxic cell radiosensitizing ability (post-irradiation survival). In kind it is cell-based, mouse. As to conditions: for sensitizer enhancement ratio (SER): 50 μM, 90% cell kill, hypoxic; for sensitisation to lethal effects of ionising radiation: in words. Here is the method: Cell cultures were examined under oxic (air) and hypoxic incubation, with various concentrations of test drug, and at several doses of radiation.

Data set [3] in a line: Long term storage in solution. In kind it is physicochemical. From the text: Both IAZA and IAZG are synthesised, in high yield, from commercial precursors (FIG. 1) and undergo high-yield isotope exchange reactions with radioiodine to produce the required radiolabelled test compounds. […] Therefore, the compounds were stored as a dry residue in multidose vials under refrigeration and were reconstituted with the appropriate solvent just prior to use. IAZP is similarly synthesised. It will be known to those skilled in the art that other radio halogens may be similarly employed in the exchange reaction.

Data set [4] is described as follows: Blood clearance and whole body elimination of radioactivity. The class given is in vivo, BALB/C mice. As to conditions: for major route of excretion: high kidney radioactivity at short time periods; for blood clearance / excretion of radioactivity from the body: i.v. bolus, ^125 I-labelled. From the text: Each data point represents the mean of 6 animals.
Tables 1 and 2 show the percent of injected IAZG and IAZA respectively per gram of wet tissue for selected tissues excised from BALB/C mice bearing EMT-6 tumors. This tumor model is known to have a high hypoxic fraction (0.33) (16). […] Hepatobiliary excretion may play a role in blood clearance as evidenced by elevated liver radioactivity and the appearance of activity in the intestine. Some oxidative or reductive metabolites of the 2-nitroimidazoles may also become bound to liver tissue, as was postulated in an in vivo study with ^14 C-MISO (6). This supposition is supported by the persistence of liver radioactivity at longer time periods. […] At 8 and 24 hours thyroid levels of IAZG are 7.2 and 30.9% of the total body activity and for IAZA they are 7.9 and 33.8% of total body activity.
EXAMPLE 11 TISSUE DISTRIBUTION AND EXCRETION
Tumor propagation of EMT-6 tumors in BALB/C mice was accomplished by subcutaneous injection of a cell suspension (10^5 cells in 0.1 mL) as described previously (10). Tumors reached about 10 mm in diameter (≈0.5 g) at 12 to 14 days, at which time each animal was given a bolus intravenous injection of ^125 I-labelled test drug via the tail vein (40 to 60 kBq in 0.1 mL). At set time periods the animals were asphyxiated with CO2 and exsanguinated via cardiac puncture. Tissues were dissected, weighed wet into vials and counted for ^125 I-activity. Whole-body activity was determined by summation of total activity in tissues and in residual carcass, and blood activity was determined from the blood aliquot, assuming blood to be 6.5% of the total body weight.

`O=[N+]([O-])c1nccn1[C@@H]1O[C@H](CI)[C@H](O)[C@H](O)[C@H]1O` [IAZG, 1-(6-iodo-6-deoxy-β-D-galactopyranosyl)-2-nitroimidazole]: in the data set with EMT-6 cells [1] (1.0 mM, hypoxic), the “time required to reduce the cell population by 90%” value is “about 1.75 h”. Further, the “cytosidal toxicity relative to MISO” value with EMT-6 cells [1] (1.0 mM, hypoxic, same conditions) is listed as “about 10 ×”. Besides, the “selective toxicity to hypoxic EMT-6 tumor cells” value in the data set on EMT-6 cells [1] was “selective toxicity to hypoxic EMT-6 tumor cells”. Besides, the “toxicity under oxic conditions” value in the data set with EMT-6 cells [1] (oxic) is recorded as “absence of toxicity under oxic conditions”. Also, in the data set on EMT-6 cells [2], the “sensitizer enhancement ratio (SER)” value is “about 1.8” and the “sensitisation to lethal effects of ionising radiation” value was “sensitise these cells to the lethal effects of ionising radiation”. Also, the “in vitro radiosensitizer efficiency, comparison” value in the data set on EMT-6 cells [2] (vs azomycin nucleoside class) is reported as “most efficient in vitro radiosensitizer of the azomycin nucleoside class produced to date”. The “stability on long term storage in solution” value in data set [3] is listed as “some decomposition of the pure compounds”. For the same compound, the “initial clearance rates, comparison” value in data set [4] (blood and whole body, IAZG vs IAZA) is given as “greater for IAZG than IAZA”. In data set [4], the “major route of excretion” value was “via the urine”, the blood clearance entry was “initial rapid blood clearance” and the “excretion of radioactivity from the body” value was “rapid excretion of radioactivity from the body”.

Turning to `O=[N+]([O-])c1nccn1[C@@H]1O[C@H](CI)[C@@H](O)[C@@H]1O` [IAZA, 1-(5-iodo-5-deoxy-β-D-arabino-furanosyl)-2-nitroimidazole], the “time required to reduce the cell population by 90%” value with EMT-6 cells [1] (1.0 mM, hypoxic) is listed as 1.65 h. The “selective toxicity to hypoxic EMT-6 tumor cells” value in the data set with EMT-6 cells [1] is “selective toxicity to hypoxic EMT-6 tumor cells”. Further, in the data set with EMT-6 cells [2], the “sensitizer enhancement ratio (SER)” value is recorded as about 1.4 and the “sensitisation to lethal effects of ionising radiation” value is listed as “sensitise these cells to the lethal effects of ionising radiation”. In data set [3], the “stability on long term storage in solution” value is listed as “some decomposition of the pure compounds”. In data set [4], the “major route of excretion” value is on record as “via the urine”, the blood clearance result is “initial rapid blood clearance” and the “excretion of radioactivity from the body” value is reported as “rapid excretion of radioactivity from the body”.
